Like-named read-outs stand apart in the source and are kept apart here.
Experiments:
[1] = tested on: Respiratory Syncytial Virus; test: microbe, parasite or virus in culture; type: cell-based; settings: for EC50: human respiratory syncytial virus, 168 h
Text: The percent protection against cytopathology caused by viruses (antiviral activity or EC50) achieved by tested compounds and their cytotoxicity (CC50) are both calculated from dose-response curves. The selectivity of the antiviral effect is represented by the selectivity index (SI), calculated by dividing the CC50 (cytotoxic dose for 50% of the cells) by the EC50 (antiviral activity for 50% of the cells).
Automated tetrazolium-based […] assays were used for determination of EC50 and CC50 of test compounds. Flat-bottom, 96-well plastic microtiter trays were filled with 180 μl of Eagle's Basal Medium, supplemented with 5% FCS (0% for FLU) and 20 mM Hepes buffer. Subsequently, stock solutions (7.8× final test concentration) of compounds were added in 45 μl volumes to a series of triplicate wells so as to allow simultaneous evaluation of their effects on virus- and mock-infected cells. Five five-fold dilutions were made directly in the microtiter trays using a robot system. Untreated virus controls, and HeLa cell controls were included in each test. Approximately 100 TCID50 of Respiratory Syncytial Virus was added to two of the three rows in a volume of 50 μl. The same volume of medium was added to the third row to measure the cytotoxicity of the compounds at the same concentrations as those used to measure the antiviral activity. After two hours of incubation, a suspension (4×10^5 cells/ml) of HeLa cells was added to all wells in a volume of 50 μl. The cultures were incubated at 37° C. in a 5% CO2 atmosphere. Seven days after infection the cytotoxicity and the antiviral activity was examined spectrophotometrically. To each well of the microtiter tray, 25 μl of a solution of MTT (3-(4,5-dimethylthiazol-2-yl)-2,5-diphenyltetrazolium bromide) was added. The trays were further incubated at 37° C. for 2 hours, after which the medium was removed from each cup. Solubilization of the formazan crystals was achieved by adding 100 μl 2-propanol. Complete dissolution of the formazan crystals were obtained after the trays have been placed on a plate shaker for 10 min. Finally, the absorbances were read in an eight-channel computer-controlled photometer (Multiskan MCC, Flow Laboratories) at two wavelengths (540 and 690 nm). The absorbance measured at 690 nm was automatically subtracted from the absorbance at 540 nm, so as to eliminate the effects of non-specific absorption.

[2] = Table 3, pEC50 (−log of EC50 in molar units), RSV-infected HeLa cells, MTT read-out seven days after infection, read-out: Activity (converted)
[3] = Table 1, pEC50 (−log of EC50 in molar units), RSV-infected HeLa cells, MTT read-out seven days after infection, read-out: Activity (converted)

Cc1cc(C)c2nc(NC3CCN(CCC(N)=O)CC3)n(Cc3nc(C)ccc3O)c2c1
melting point: 212 °C

Cc1ccc(O)c(Cn2c(NC3CCN(CCCS(N)(=O)=O)CC3)nc3c(C)cccc32)n1 [Compound 19, 3-{4-[1-(3-hydroxy-6-methyl-pyridin-2-ylmethyl)-4-methyl-1H-benzoimidazol-2-ylamino]-piperidin-1-yl}-propane-1-sulfonic acid amide]
EC50 [1, 2]: 12.6 nM | melting point: 250 °C

Cc1ccc(O)c(Cn2c(NC3CCN(CCC(=O)O)CC3)nc3c(C)cccc32)n1.Cl [Compound 33, 3-{4-[1-(3-hydroxy-6-methyl-pyridin-2-ylmethyl)-4-methyl-1H-benzoimidazol-2-ylamino]-piperidin-1-yl}-propionic acid hydrochloride salt]
EC50 [1, 2]: 158 nM | melting point: 245 °C

Cc1cc(C)c2nc(NC3CCN(CCCO)CC3)n(Cc3nc(C)ccc3O)c2c1 [Compound 4, 2-{2-[1-(3-hydroxy-propyl)-piperidin-4-ylamino]-4,6-dimethyl-benzoimidazol-1-ylmethyl}-6-methyl-pyridin-3-ol]
EC50 [1, 3]: 7.94 nM | melting point: 209 °C

Cc1ccc(O)c(Cn2c(NC3CCN(CCOC(=O)Cc4ccccc4)CC3)nc3c(C)cccc32)n1 [Compound 24, Phenyl-acetic acid 2-{4-[1-(3-hydroxy-6-methyl-pyridin-2-ylmethyl)-4-methyl-1H-benzoimidazol-2-ylamino]-piperidin-1-yl}-ethyl ester]
EC50 ([1]; HeLa, read-out: Activity): 31.6 nM | melting point: 207 °C

6-methyl-2-[4-methyl-2-(1-methyl-piperidin-4-ylamino)-benzoimidazol-1-ylmethyl]-pyridin-3-ol [Compound 34]
Activity ([1]; Table 3, pEC50 (−log of EC50 in molar units), RSV-infected HeLa cells, MTT read-out seven days after infection): 6.8

Cc1cc(C)c2nc(NC3CCN(CCO)CC3)n(Cc3nc(C)ccc3O)c2c1 [Compound 2, 2-{2-[1-(2-hydroxy-ethyl)-piperidin-4-ylamino]-4,6-dimethyl-benzoimidazol-1-ylmethyl}-6-methyl-pyridin-3-ol]
EC50 [1, 3]: 3.16 nM | melting point: 177 °C

CCOC(=O)CCN1CCC(Nc2nc3c(C)cccc3n2Cc2nc(C)ccc2O)CC1 [Compound 32, 3-{4-[1-(3-Hydroxy-6-methyl-pyridin-2-ylmethyl)-4-methyl-1H-benzoimidazol-2-ylamino]-piperidin-1-yl}-propionic acid ethyl ester]
EC50 [1, 2]: 158 nM | melting point: 226 °C

Cc1cc(C)c2c(c1)nc(NC1CCN(CCO)CC1)n2Cc1nc(C)ccc1O [Compound 15, 2-{2-[1-(2-hydroxy-ethyl)-piperidin-4-ylamino]-5,7-dimethyl-benzoimidazol-1-ylmethyl}-6-methyl-pyridin-3-ol]
EC50 ([1]; Table 2, pEC50 (−log of EC50 in molar units), RSV-infected HeLa cells, MTT read-out seven days after infection, read-out: Activity (converted)): 398 nM | melting point: 143 °C

Cc1ccc(O)c(Cn2c(NC3CCN(CC(O)C(C)C)CC3)nc3c(C)cccc32)n1 (stereo not drawn) [Compound 35, 2-{2-[1-(2-hydroxy-3-methyl-butyl)-piperidin-4-ylamino]-4-methyl-benzoimidazol-1-ylmethyl}-6-methyl-pyridin-3-ol]
EC50 [1, 2]: 158 nM | melting point: 230 °C

Cc1ccc(O)c(Cn2c(NC3CCN(CCN4CCCC4)CC3)nc3c(C)cccc32)n1 [Compound 18, 6-Methyl-2-{4-methyl-2-[1-(2-pyrrolidin-1-yl-ethyl)-piperidin-4-ylamino]-benzoimidazol-1-ylmethyl}-pyridin-3-ol]
EC50 [1, 2]: 10 nM | melting point: 225 °C

CCOC(=O)CCN1CCC(Nc2nc3c(C)cc(C)cc3n2Cc2nc(C)ccc2O)CC1 [Compound 10, 3-{4-[1-(3-Hydroxy-6-methyl-pyridin-2-ylmethyl)-4,6-dimethyl-1H-benzoimidazol-2-ylamino]-piperidin-1-yl}-propionic acid ethyl ester]
EC50 [1, 3]: 79.4 nM | melting point: 172 °C

Cc1cc(C)c2nc(NC3CCN(CCCS(N)(=O)=O)CC3)n(Cc3nc(C)ccc3O)c2c1 [Compound 1, 3-{4-[1-(3-hydroxy-6-methyl-pyridin-2-ylmethyl)-4,6-dimethyl-1H-benzoimidazol-2-ylamino]-piperidin-1-yl}-propane-1-sulfonic acid amide]
EC50 [1, 3]: 2 nM | melting point: 180 °C

COc1ccc(OCC(O)CN2CCC(Nc3nc4c(C)cccc4n3Cc3nc(C)ccc3O)CC2)cc1 (stereo not drawn) [Compound 41, 2-(2-{1-[2-hydroxy-3-(4-methoxy-phenoxy)-propyl]-piperidin-4-ylamino}-4-methyl-benzoimidazol-1-ylmethyl)-6-methyl-pyridin-3-ol]
EC50 [1, 2]: 316 nM | melting point: 227 °C

Cc1ccc(O)c(Cn2c(NC3CCN(CCOC(N)=O)CC3)nc3c(C)cccc32)n1 [Compound 37, Carbamic acid 2-{4-[1-(3-hydroxy-6-methyl-pyridin-2-ylmethyl)-4-methyl-1H-benzoimidazol-2-ylamino]-piperidin-1-yl}-ethyl ester]
EC50 [1, 2]: 158 nM | melting point: 222 °C

Cc1ccc(O)c(Cn2c(NC3CCN(CCC(N)=O)CC3)nc3c(C)cccc32)n1 [Compound 27, 3-{4-[1-(3-Hydroxy-6-methyl-pyridin-2-ylmethyl)-4-methyl-1H-benzoimidazol-2-ylamino]-piperidin-1-yl}-propionamide]
EC50 [1, 2]: 50.1 nM | melting point: 258 °C

Reference: US7355051B2, “Piperdine-amino-benzimidazole derivatives as inhibitors of respiratory syncytial virus replication” (Tibotec Pharmaceuticals, priority 2003, dated 2008)
